Bounds are passed on as bounds.

The target of test [1] is T1, menin/MLL (terbium chelate-labeled menin, FITC-MBM1 peptide) (Homo sapiens, UniProt O00255, T541A).
T1 construct: Menin (a.a 1-610-6xhis tag, 2.3 mg/mL in 20 mM Hepes)
T1 sequence (O00255 with tags, fused parts or gaps T541A): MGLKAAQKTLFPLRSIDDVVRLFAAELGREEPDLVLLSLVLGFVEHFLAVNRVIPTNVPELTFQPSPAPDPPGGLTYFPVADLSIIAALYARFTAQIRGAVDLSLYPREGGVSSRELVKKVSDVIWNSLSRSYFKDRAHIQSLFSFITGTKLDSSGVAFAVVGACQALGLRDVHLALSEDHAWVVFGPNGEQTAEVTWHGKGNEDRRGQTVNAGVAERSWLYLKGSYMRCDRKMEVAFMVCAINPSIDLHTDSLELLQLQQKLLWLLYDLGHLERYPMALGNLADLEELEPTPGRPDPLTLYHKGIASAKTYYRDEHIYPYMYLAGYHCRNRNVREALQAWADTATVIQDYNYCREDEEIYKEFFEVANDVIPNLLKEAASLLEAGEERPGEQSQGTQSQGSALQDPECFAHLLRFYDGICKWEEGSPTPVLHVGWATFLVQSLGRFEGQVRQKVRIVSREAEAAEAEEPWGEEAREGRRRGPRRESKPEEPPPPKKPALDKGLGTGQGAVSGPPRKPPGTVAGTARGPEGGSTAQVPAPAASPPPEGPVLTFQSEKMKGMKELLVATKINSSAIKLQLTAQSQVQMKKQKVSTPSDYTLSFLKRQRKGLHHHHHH
Kind of test: Menin/MLL homogenous time-resolved fluorescence (HTRF) assay. Particulars: 30 min incubation. The format is binding. Put shortly:
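Terbium-labeled menin (a.a. 1-610, His-tagged; […]) pre-incubated 30 min with compound, then 75 nM FITC-MBM1 peptide added for 15 min at ambient temperature in Tris pH 7.5 buffer, 0.5% DMSO. HTRF 520/490 nm ratio read; IC50 from 11-point four-fold titrations, typically from 10 μM.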

In the next test the test system is MEIS1 mRNA expression. In words: MEIS1 mRNA expression assay (Quantigene Singleplex) in MOLM14 cells. The format is cell-based, human. Particulars: 48 hours incubation. Put shortly: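 MOLM14 cells, 3,750/well, exposed to increasing compound concentrations for 48 h. MEIS1 mRNA measured by QuantiGene Singleplex branched-DNA hybridization (lysis 45 min, hybridization 18–22 h, both 55 °C), normalized to RPL28. IC50 fitted to background-corrected fold change versus DMSO.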

As to `Cc1cc(CN2CC(Cc3cn(-c4ccc(F)cc4C(=O)N(C)C(C)C)c4cncc(C)c34)C2)[nH]n1` [Compound 285], the IC50 (usually the concentration needed to halve the response being measured) is 1.49 nM in test [1] and about 1330 nM in the test with MEIS1 mRNA expression (Homo sapiens, MOLM-14, 48 h).
For the molecule `CCN(C(=O)c1cc(F)ccc1-n1cc(CC2CN(C(C(C)C)[C@H]3C[C@H](N4CCN(S(C)(=O)=O)CC4)C3)C2)c2c(C)cncc21)C(C)C` (stereo partly shown) [Compound 37b], the IC50 in test [1] worked out at 0.237 nM; in the test on MEIS1 mRNA expression (Homo sapiens, MOLM-14, 48 h), 28 nM.
For `CC(=O)N1CCC([C@H](C)N2CC[C@H](Cc3cn(-c4ccc(F)cc4[S@@](=N)(=O)C(C)C)c4cncc(C)c34)C2)CC1` (single isomer, unassigned) [Compound 233b], the IC50 in test [1] was 2.24 nM; with MEIS1 mRNA expression (Homo sapiens, MOLM-14, 48 h), over 1000 nM.
Consider `Cc1cncc2c1c(C[C@@H]1CCN(CC3CCOCC3)C1)cn2-c1ccc(F)cc1C(=O)N1CCCC1C(C)O` (single isomer, unassigned) [Compound 363a], for which the IC50 in test [1] was 0.228 nM; with MEIS1 mRNA expression it was 359 nM.
Take `Cc1cncc2c1c(C[C@@H]1CCN([C@@H](C)C3CCOCC3)C1)cn2-c1ccc(F)cc1[S@@](=N)(=O)C(C)C` (single isomer, unassigned) [Compound 182b]: the 50% inhibitory concentration (IC50) in test [1] was determined as 3.1 nM; with MEIS1 mRNA expression (Homo sapiens, MOLM-14, 48 h), 1770 nM.
Consider `COCC[C@H](C1CCOCC1)N1CC[C@@H](Cc2cn(-c3ccc(F)cc3C(=O)N(C)C(C)C)c3cncc(C)c23)C1` (single isomer, unassigned) [Compound 252a], for which the IC50 in test [1] came out at 0.341 nM; in the test on MEIS1 mRNA expression (Homo sapiens, MOLM-14, 48 h) it was 69 nM.
Regarding `CC(=O)N1CCC(N2CC[C@@H](Cc3cn(-c4ccc(F)cc4C(=O)N(C)C(C)C)c4cncc(C)c34)C2)C(C)(C)C1` (mixture of isomers) [Compound 234], the IC50 is about 0.068 nM in test [1] and 18 nM in the test on MEIS1 mRNA expression (Homo sapiens, MOLM-14, 48 h).
Regarding `Cc1cncc2c1c(CC1CN(CC3CCC4(CC3)OCCO4)C1)cn2-c1ccc(F)cc1C(=O)N(C)C(C)C` [Compound 92], the half-inhibitory concentration (IC50) in test [1] was determined as 0.219 nM; in the test with MEIS1 mRNA expression (Homo sapiens, MOLM-14, 48 h) it was 52 nM.
As to `CC(=O)N1CCC(C)(CN2CC[C@@H](Cc3cn(-c4ccc(F)cc4C(=O)N(CCO)C(C)C)c4cncc(C)c34)C2)CC1` [Compound 337], the half-inhibitory concentration (IC50) in test [1] came to 0.092 nM; in the test with MEIS1 mRNA expression (Homo sapiens, MOLM-14, 48 h), 24 nM.
`Cc1cncc2c1c(C[C@@H]1CCN(CC3CCN(C(=O)C(C)(C)O)CC3)C1)cn2-c1ccc(F)cc1C(=O)N1CC2CC1CO2` (stereo partly shown) [Compound 345]: the IC50 was 0.204 nM in test [1] and 36 nM with MEIS1 mRNA expression (Homo sapiens, MOLM-14, 48 h).
For the molecule `CC(=O)N[C@@H](C)CN1CC[C@H](Cc2cn(-c3ccc(F)cc3C(=O)N(C)C(C)C)c3cncc(C)c23)C1` (single isomer, unassigned) [Compound 119b], the IC50 in test [1] was 0.569 nM; in the test on MEIS1 mRNA expression (Homo sapiens, MOLM-14, 48 h), over 1000 nM.
In the case of `Cc1cncc2c1c(CC1CCN(CC3CCN(C(=O)CC4CS(=O)(=O)C4)CC3)C1)cn2-c1ccc(F)cc1C(=O)N(C)C(C)C` (single isomer, unassigned) [Compound 108], the IC50 in test [1] was found to be 0.161 nM; in the test with MEIS1 mRNA expression it was 153 nM.
Turning to `Cc1cncc2c1c(CC1CCN(CC3CCN(C(=O)N(C)C)CC3)CC1)cn2-c1ccc(F)cc1C(=O)N(C)C(C)C` [Compound 235], the IC50 amounted to 0.097 nM in test [1] and 14 nM in the test on MEIS1 mRNA expression (Homo sapiens, MOLM-14, 48 h).
As to `CC(=O)N1CCC([C@H](C)N2CC[C@H](Cc3cn(-c4ccc(F)cc4[S@](=N)(=O)C(C)C)c4cncc(C)c34)C2)CC1` (single isomer, unassigned) [Compound 232b], the IC50 in test [1] was 4.04 nM; in the test with MEIS1 mRNA expression (Homo sapiens, MOLM-14, 48 h) it was over 1000 nM.
As to `Cc1cncc2c1c(CC1CN(CC3CCOC3)C1)cn2-c1ccc(F)cc1C(=O)N(C)C(C)C` (stereo not shown) [Compound 287], the IC50 was found to be 0.034 nM in test [1] and 26 nM in the test with MEIS1 mRNA expression (Homo sapiens, MOLM-14, 48 h).
For `CC(=O)N1CCCC(N2CC[C@@H](Cc3cn(-c4ccc(F)cc4C(=O)N(C)C(C)C)c4cncc(C)c34)C2)C1` (mixture of isomers) [Compound 215], the IC50 in test [1] worked out at 0.291 nM; in the test on MEIS1 mRNA expression (Homo sapiens, MOLM-14, 48 h) it was 299 nM.
Regarding `CC(=O)N1CCC(C)C(N2CC[C@@H](Cc3cn(-c4ccc(F)cc4C(=O)N(C)C(C)C)c4cncc(C)c34)C2)C1` (stereo partly shown) [Compound 242], the results for the IC50 (in test [1]; with MEIS1 mRNA expression) were 0.811 nM and over 1000 nM, respectively.
Turning to `Cc1cncc2c1c(CC1CN(CC(=O)N3CCC(F)(F)C3)C1)cn2-c1ccc(F)cc1C(=O)N(C)C(C)C` [Compound 96], the IC50 in test [1] is 4.57 nM; in the test with MEIS1 mRNA expression (Homo sapiens, MOLM-14, 48 h), 3690 nM.
For `Cc1cncc2c1c(C[C@@H]1CCN(CC3CCOCC3)C1)cn2-c1ccc(F)cc1C(=O)N1CC[C@@H](O)C1(C)C` (single isomer, unassigned) [Compound 364a], the IC50 was 0.098 nM in test [1] and 225 nM in the test on MEIS1 mRNA expression (Homo sapiens, MOLM-14, 48 h).
For `Cc1cncc2c1c(CC1CN(CC3CCCO3)C1)cn2-c1ccc(F)cc1C(=O)N(C)C(C)C` (stereo not shown) [Compound 288], the IC50 in test [1] was 0.059 nM; in the test with MEIS1 mRNA expression (Homo sapiens, MOLM-14, 48 h) it was 43 nM.
For `Cc1cncc2c1c(CC1CCN(C[C@H]3CC[C@H](NS(C)(=O)=O)CC3)C1)cn2-c1ccc(F)cc1C(=O)N(C)C(C)C` (single isomer, unassigned) [Compound 68] the same measures were 0.043 nM and 32 nM.
Take `Cc1cncc2c1c(CC1CCN(C[C@@H]3CCC(=O)N3)CC1)cn2-c1ccc(F)cc1C(=O)N(C)C(C)C` [Compound 105]: the IC50 in test [1] is 0.728 nM; in the test on MEIS1 mRNA expression (Homo sapiens, MOLM-14, 48 h), over 1000 nM.
Turning to `Cc1cncc2c1c(C[C@@H]1CCN(CC3CCOCC3)C1)cn2-c1ccc(F)cc1C(=O)N1CC[C@H](O)C1(C)C` (single isomer, unassigned) [Compound 364b], the IC50 was 0.292 nM in test [1] and about 670 nM with MEIS1 mRNA expression (Homo sapiens, MOLM-14, 48 h).
For the molecule `CC(=O)N1C[C@@H]2CN([C@H]3C[C@@H](C(C(C)C)N4CC(Cc5cn(-c6ccc(F)cc6C(=O)N(C)C(C)C)c6cncc(Cl)c56)C4)C3)C[C@H]2C1` (single isomer, unassigned) [Compound 40a], the half-inhibitory concentration (IC50) in test [1] was 0.841 nM; in the test on MEIS1 mRNA expression (Homo sapiens, MOLM-14, 48 h), about 540 nM.
Consider `CC(=O)N1CCC([C@@H](C)N2CC[C@@H](Cc3cn(-c4ccc(F)cc4[S@](=N)(=O)C(C)C)c4cncc(C)c34)C2)CC1` (single isomer, unassigned) [Compound 230a], for which the IC50 in test [1] is 0.053 nM; with MEIS1 mRNA expression (Homo sapiens, MOLM-14, 48 h), 77 nM.
Take `CC(=O)N1CC2CC(CN3CC[C@@H](Cc4cn(-c5ccc(F)cc5C(=O)N5CCC[C@H]5CO)c5cncc(C)c45)C3)CC(C2)C1` (stereo partly shown) [Compound 349]: the IC50 in test [1] was 6.68 nM; in the test on MEIS1 mRNA expression (Homo sapiens, MOLM-14, 48 h), over 1000 nM.
For `Cc1cncc2c1c(C[C@H]1CCN([C@@H](C)C3CCOCC3)C1)cn2-c1ccc(F)cc1[S@](=N)(=O)C(C)C` (single isomer, unassigned) [Compound 181b] the same measures were 4.58 nM and 1910 nM.
Turning to `Cc1cncc2c1c(CC1CN(CC3CCN(C(=O)C(C)(C)O)CC3)C1)cn2-c1ccc(F)cc1C(=O)N(C)C(C)C` [Compound 250], the 50% inhibitory concentration (IC50) was 0.076 nM in test [1] and 30 nM with MEIS1 mRNA expression (Homo sapiens, MOLM-14, 48 h).
Regarding `Cc1cncc2c1c(C[C@@H]1CCN(CC3CCOCC3)C1)cn2-c1ccc(F)cc1C(=O)N1CCCC1C(C)O` (single isomer, unassigned) [Compound 363b], the IC50 in test [1] was 0.093 nM; in the test with MEIS1 mRNA expression, about 174 nM.
For `Cc1cncc2c1c(CC1CN([C@@H](C(C)C)[C@H]3C[C@H](N4CCN(S(C)(=O)=O)CC4)C3)C1)cn2-c1ccc(F)cc1C(=O)N(C)C(C)C` (single isomer, unassigned) [Compound 34b], the IC50 was 0.092 nM in test [1] and 25 nM in the test on MEIS1 mRNA expression (Homo sapiens, MOLM-14, 48 h).
Consider `CC(=O)N1CCC([C@@H](C)N2CC[C@@H](Cc3cn(-c4ccc(F)cc4[S@@](=N)(=O)C(C)C)c4cncc(C)c34)C2)CC1` (single isomer, unassigned) [Compound 231a], for which the IC50 in test [1] was found to be 0.311 nM; with MEIS1 mRNA expression (Homo sapiens, MOLM-14, 48 h), 52 nM.
As for `Cc1cncc2c1c(C[C@@H]1CCN(CC3CCOCC3)C1)cn2-c1ccc(F)cc1[S@](=N)(=O)C(C)C` (single isomer, unassigned) [Compound 78b], the results for the IC50 (in test [1]; with MEIS1 mRNA expression) were 0.552 nM and 361 nM, respectively.
In the case of `Cc1cncc2c1c(C[C@@H]1CCN(CC3CCOCC3)C1)cn2-c1ccc(F)cc1C(=O)N1CCC[C@]1(C)CO` (single isomer, unassigned) [Compound 362a], the half-inhibitory concentration (IC50) amounted to 0.149 nM in test [1] and 184 nM with MEIS1 mRNA expression (Homo sapiens, MOLM-14, 48 h).
For the molecule `CC[C@H]([C@H]1C[C@@H](N2C[C@H]3CN(C(C)=O)C[C@@H]3C2)C1)N1CC[C@H](Cc2cn(-c3ccc(F)cc3C(=O)N(C)C(C)C)c3cncc(Cl)c23)C1` (single isomer, unassigned) [Compound 27a], the IC50 in test [1] was 0.012 nM; in the test on MEIS1 mRNA expression (Homo sapiens, MOLM-14, 48 h), under 4.1 nM.
In the case of `CC(=O)NC(C)CN1CCC(Cc2cn(-c3ccc(F)cc3C(=O)N(C)C(C)C)c3cncc(C)c23)C1` (single isomer, unassigned) [Compound 119a], the IC50 is 0.906 nM in test [1] and over 1000 nM in the test on MEIS1 mRNA expression.

These data come from patent US20230250096A1, “SUBSTITUTED PHENYL-1H-PYRROLO[2,3-c] PYRIDINE DERIVATIVES” (Janssen Pharmaceutica NV, priority 2021, published 2023).
